Results as given in patent publication US20240158370A1, “CK1 alpha AND DUAL CK1 alpha / GSPT1 DEGRADING COMPOUNDS” (Innovo Therapeutics, Inc., priority 2022, published 2024).

Assays:
GSPT1 = GSPT1 (Homo sapiens, UniProt P15170+Q96SW2); assay: HiBiT degradation assay, GSPT1, Procedure A; type: cell-based; design: HiBit-GSPT1 KI HEK293(LgBit) Cells; host or cells: HEK293(LgBit) knock-in cells; conditions: six hours
Procedure, shortened: (§1)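 Luminescence from HiBiT lytic detection reports remaining tagged protein after cells sit six hours at 37° C with compound across ten concentrations (10 μM down to 0.005 μM, 0.1% DMSO). A 4-parameter curve fit gives DC50 and Ymin.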

CK1α = biological target: T1, CK1α (Homo sapiens, UniProt P48729+Q96SW2); assay: HiBiT degradation assay, CK1α, Procedure A; type: cell-based; conditions: six hours
T1 construct: CSNK1A1-HiBit KI HEK293(LgBit) Cells; host or cells: HEK293(LgBit) knock-in cells
T1 sequence (P48729 whole entry): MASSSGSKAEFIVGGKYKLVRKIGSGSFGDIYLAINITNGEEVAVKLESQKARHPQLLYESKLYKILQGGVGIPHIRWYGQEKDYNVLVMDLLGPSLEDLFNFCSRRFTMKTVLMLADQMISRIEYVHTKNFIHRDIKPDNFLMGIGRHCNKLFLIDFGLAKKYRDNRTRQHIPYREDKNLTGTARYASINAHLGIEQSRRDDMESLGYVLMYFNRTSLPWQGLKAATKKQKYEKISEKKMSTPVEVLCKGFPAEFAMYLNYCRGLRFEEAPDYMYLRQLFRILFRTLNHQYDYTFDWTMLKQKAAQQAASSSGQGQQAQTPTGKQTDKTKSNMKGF
T1 sequence (Q96SW2 whole entry): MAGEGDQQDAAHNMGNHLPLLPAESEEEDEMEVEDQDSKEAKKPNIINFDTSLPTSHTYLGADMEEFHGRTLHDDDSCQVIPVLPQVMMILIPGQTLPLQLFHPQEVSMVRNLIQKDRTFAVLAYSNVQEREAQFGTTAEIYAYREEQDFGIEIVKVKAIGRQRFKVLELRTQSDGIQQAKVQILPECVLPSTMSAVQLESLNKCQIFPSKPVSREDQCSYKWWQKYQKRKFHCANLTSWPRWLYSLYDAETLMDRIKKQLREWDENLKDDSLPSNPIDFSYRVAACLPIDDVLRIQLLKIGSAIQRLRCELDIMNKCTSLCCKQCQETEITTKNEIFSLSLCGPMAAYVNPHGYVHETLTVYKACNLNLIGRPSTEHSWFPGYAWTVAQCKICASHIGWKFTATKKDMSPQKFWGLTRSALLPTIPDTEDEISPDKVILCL
T1 sequence (Q16531 whole entry partner): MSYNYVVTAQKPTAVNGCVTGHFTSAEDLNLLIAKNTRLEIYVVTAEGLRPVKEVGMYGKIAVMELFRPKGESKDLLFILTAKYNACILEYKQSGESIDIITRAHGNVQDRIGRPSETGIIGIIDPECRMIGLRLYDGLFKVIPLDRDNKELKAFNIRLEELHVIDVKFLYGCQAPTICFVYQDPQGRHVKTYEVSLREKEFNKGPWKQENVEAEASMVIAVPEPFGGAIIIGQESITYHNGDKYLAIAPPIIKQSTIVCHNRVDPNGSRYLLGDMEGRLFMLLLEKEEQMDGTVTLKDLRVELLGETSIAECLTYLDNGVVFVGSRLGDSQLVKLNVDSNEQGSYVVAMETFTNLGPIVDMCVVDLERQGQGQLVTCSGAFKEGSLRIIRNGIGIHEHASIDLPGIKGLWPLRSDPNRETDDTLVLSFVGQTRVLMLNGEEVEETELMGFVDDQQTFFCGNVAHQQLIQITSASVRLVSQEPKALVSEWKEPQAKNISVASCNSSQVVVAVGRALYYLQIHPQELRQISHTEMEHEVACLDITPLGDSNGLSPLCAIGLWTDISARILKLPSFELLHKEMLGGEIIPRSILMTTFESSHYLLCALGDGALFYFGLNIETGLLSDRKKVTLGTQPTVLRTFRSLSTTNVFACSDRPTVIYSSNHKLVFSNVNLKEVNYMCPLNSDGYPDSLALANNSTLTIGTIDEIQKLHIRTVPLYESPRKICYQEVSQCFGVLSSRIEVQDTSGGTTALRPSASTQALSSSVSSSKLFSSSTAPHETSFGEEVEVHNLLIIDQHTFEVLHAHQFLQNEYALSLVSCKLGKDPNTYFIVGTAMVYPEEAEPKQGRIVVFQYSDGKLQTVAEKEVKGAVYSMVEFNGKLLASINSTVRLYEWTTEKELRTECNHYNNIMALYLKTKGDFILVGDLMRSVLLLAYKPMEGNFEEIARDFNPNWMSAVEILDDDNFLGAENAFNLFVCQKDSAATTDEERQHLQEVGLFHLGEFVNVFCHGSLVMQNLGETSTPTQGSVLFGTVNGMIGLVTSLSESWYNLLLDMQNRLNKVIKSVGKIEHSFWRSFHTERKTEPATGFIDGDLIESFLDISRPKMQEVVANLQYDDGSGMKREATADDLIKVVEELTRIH
Procedure, shortened: as §1

GSPT1, sequence (P15170 whole entry): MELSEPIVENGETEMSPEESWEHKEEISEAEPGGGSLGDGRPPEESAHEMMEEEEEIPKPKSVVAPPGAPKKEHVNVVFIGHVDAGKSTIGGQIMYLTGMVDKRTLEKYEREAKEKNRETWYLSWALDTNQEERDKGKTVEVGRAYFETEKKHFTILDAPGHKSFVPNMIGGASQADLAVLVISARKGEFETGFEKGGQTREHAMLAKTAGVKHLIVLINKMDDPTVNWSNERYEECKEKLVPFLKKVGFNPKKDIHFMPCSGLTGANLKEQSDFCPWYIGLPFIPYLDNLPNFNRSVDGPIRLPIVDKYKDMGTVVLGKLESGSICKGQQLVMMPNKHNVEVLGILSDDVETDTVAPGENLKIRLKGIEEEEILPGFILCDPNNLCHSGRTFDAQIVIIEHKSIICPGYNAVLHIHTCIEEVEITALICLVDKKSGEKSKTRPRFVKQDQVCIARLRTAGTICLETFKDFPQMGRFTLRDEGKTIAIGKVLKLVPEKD
GSPT1, sequence (Q96SW2 whole entry): as the sequence (Q96SW2 whole entry) above
GSPT1, sequence (Q16531 whole entry partner): as the sequence (Q16531 whole entry partner) above

Row | Compound | DC50 (GSPT1) [µM] | GSPT1 Ymin (GSPT1) | CK1α Ymin (CK1α) | DC50 (CK1α) [µM]
1 | CC(C)n1ccc(-c2c(-c3ccc4c(c3)CN(C3CCC(=O)NC3=O)C4=O)ncn2C)n1 (centres unmarked) [Example 487] | ≥ 0.025 | F (F = >75-100% remaining) | E (E = >25-75% remaining) | < 0.025
2 | Cn1cnc(-c2ccc3c(c2)CN(C2CCC(=O)NC2=O)C3=O)c1-c1ccc2occc2c1 (centres unmarked) [Example 489] | < 0.025 | E (E = >25-75% remaining) | C (C = 0-10% remaining) | < 0.025
3 | Cn1cnc(-c2ccc3c(c2)CN(C2CCC(=O)NC2=O)C3=O)c1-c1ccc2ncnn2c1 (centres unmarked) [Example 490] | ≥ 0.025 | F (F = >75-100% remaining) | E (E = >25-75% remaining) | ≥ 0.025
4 | CC(C)Cn1cc(-c2c(-c3ccc4c(c3)CN(C3CCC(=O)NC3=O)C4=O)ncn2C)cn1 (centres unmarked) [Example 491] | ≥ 0.025 | E (E = >25-75% remaining) | D (D = >10- 25% remaining) | < 0.025
5 | Cn1cnc(-c2ccc3c(c2)CN(C2CCC(=O)NC2=O)C3=O)c1-c1cnn(C(C)(C)C)c1 (centres unmarked) [Example 492] | ≥ 0.025 | F (F = >75-100% remaining) | F (F = >75-100% remaining) | ≥ 0.025
6 | Cn1cnc(-c2ccc3c(c2)CN(C2CCC(=O)NC2=O)C3=O)c1-c1ccc2cccnc2c1 (centres unmarked) [Example 493] | ≥ 0.025 | F (F = >75-100% remaining) | D (D = >10- 25% remaining) | < 0.025
7 | Cn1cnc(-c2ccc3c(c2)CN(C2CCC(=O)NC2=O)C3=O)c1-c1ccc2nccnc2c1 (centres unmarked) [Example 494] | ≥ 0.025 | F (F = >75-100% remaining) | E (E = >25-75% remaining) | ≥ 0.025
8 | Cn1cnc(-c2ccc3c(c2)CN(C2CCC(=O)NC2=O)C3=O)c1-c1ccc2c(ccn2C)c1 (centres unmarked) [Example 496] | < 0.025 | E (E = >25-75% remaining) | C (C = 0-10% remaining) | < 0.025
9 | Cn1cnc(-c2ccc3c(c2)CN(C2CCC(=O)NC2=O)C3=O)c1-c1cnn(CC(F)F)c1 (centres unmarked) [Example 497] | ≥ 0.025 | F (F = >75-100% remaining) | D (D = >10- 25% remaining) | ≥ 0.025
10 | Cn1cnc(-c2ccc3c(c2)CN(C2CCC(=O)NC2=O)C3=O)c1-c1ccc2cnn(C)c2c1 (centres unmarked) [Example 498] | < 0.025 | F (F = >75-100% remaining) | D (D = >10- 25% remaining) | < 0.025
11 | Cn1cnc(-c2ccc3c(c2)CN(C2CCC(=O)NC2=O)C3=O)c1-c1cnc2c(ccn2C)c1 (centres unmarked) [Example 499] | ≥ 0.025 | F (F = >75-100% remaining) | E (E = >25-75% remaining) | < 0.025
12 | Cn1cnc(-c2ccc3c(c2)CN(C2CCC(=O)NC2=O)C3=O)c1-c1ccc2ncn(C)c2c1 (centres unmarked) [Example 500] | ≥ 0.025 | F (F = >75-100% remaining) | C (C = 0-10% remaining) | < 0.025
13 | Cc1nc2ccc(-c3c(-c4ccc5c(c4)CN(C4CCC(=O)NC4=O)C5=O)ncn3C)cc2[nH]1 (centres unmarked) [Example 501] | ≥ 0.025 | F (F = >75-100% remaining) | C (C = 0-10% remaining) | < 0.025
14 | Cn1cnc(-c2ccc3c(c2)CN(C2CCC(=O)NC2=O)C3=O)c1-c1ccc2ncsc2c1 (centres unmarked) [Example 502] | < 0.025 | E (E = >25-75% remaining) | C (C = 0-10% remaining) | < 0.025
15 | Cn1cnc(-c2ccc3c(c2)CN(C2CCC(=O)NC2=O)C3=O)c1-c1cnn(Cc2cccnc2)c1 (centres unmarked) [Example 503] | ≥ 0.025 | F (F = >75-100% remaining) | E (E = >25-75% remaining) | ≥ 0.025
16 | Cn1cnc(-c2ccc3c(c2)CN(C2CCC(=O)NC2=O)C3=O)c1-c1cc[nH]n1 (centres unmarked) [Example 504] | ≥ 0.025 | F (F = >75-100% remaining) | D (D = >10- 25% remaining) | ≥ 0.025
17 | Cn1ccc(-c2c(-c3ccc4c(c3)CN(C3CCC(=O)NC3=O)C4=O)ncn2C)n1 (centres unmarked) [Example 505] | < 0.025 | F (F = >75-100% remaining) | D (D = >10- 25% remaining) | < 0.025
18 | Cn1cnc(-c2ccc3c(c2)CN(C2CCC(=O)NC2=O)C3=O)c1-c1cccs1 (centres unmarked) [Example 506] | < 0.025 | E (E = >25-75% remaining) | C (C = 0-10% remaining) | < 0.025
19 | Cc1ncccc1-c1c(-c2ccc3c(c2)CN(C2CCC(=O)NC2=O)C3=O)ncn1C (centres unmarked) [Example 507] | ≥ 0.025 | F (F = >75-100% remaining) | E (E = >25-75% remaining) | < 0.025

Row | Compound | DC50 (GSPT1) [µM] | GSPT1 Ymin (GSPT1) | CK1α Ymin (CK1α) | DC50 (CK1α) [µM]
20 | COc1ccsc1-c1c(-c2ccc3c(c2)CN(C2CCC(=O)NC2=O)C3=O)ncn1C (centres unmarked) [Example 508] | ≥ 0.025 | F (F = >75-100% remaining) | D (D = >10- 25% remaining) | < 0.025
21 | Cn1cnc(-c2ccc3c(c2)CN(C2CCC(=O)NC2=O)C3=O)c1-c1c[nH]c2ccccc12 (centres unmarked) [Example 509] | < 0.025 | E (E = >25-75% remaining) | D (D = >10- 25% remaining) | < 0.025
22 | Cn1cnc(-c2ccc3c(c2)CN(C2CCC(=O)NC2=O)C3=O)c1-c1ccc2[nH]ncc2c1 (centres unmarked) [Example 510] | ≥ 0.025 | E (E = >25-75% remaining) | C (C = 0-10% remaining) | < 0.025
23 | Cn1cnc(-c2ccc3c(c2)CN(C2CCC(=O)NC2=O)C3=O)c1-c1cnn(C2CCC2)c1 (centres unmarked) [Example 511] | ≥ 0.025 | F (F = >75-100% remaining) | D (D = >10- 25% remaining) | < 0.025
24 | Cc1c[nH]c2cc(-c3c(-c4ccc5c(c4)CN(C4CCC(=O)NC4=O)C5=O)ncn3C)ccc12 (centres unmarked) [Example 512] | < 0.025 | F (F = >75-100% remaining) | C (C = 0-10% remaining) | < 0.025
25 | Cn1cnc(-c2ccc3c(c2)CN(C2CCC(=O)NC2=O)C3=O)c1-c1ccc2c(cnn2C)c1 (centres unmarked) [Example 513] | ≥ 0.025 | F (F = >75-100% remaining) | C (C = 0-10% remaining) | < 0.025
26 | Cn1cnc(-c2ccc3c(c2)CN(C2CCC(=O)NC2=O)C3=O)c1-c1ccc2c(c1)CCCO2 (centres unmarked) [Example 514] | ≥ 0.025 | E (E = >25-75% remaining) | C (C = 0-10% remaining) | < 0.025
27 | Cn1cnc(-c2ccc3c(c2)CN(C2CCC(=O)NC2=O)C3=O)c1-c1ccc2sccc2c1 (centres unmarked) [Example 515] | < 0.025 | E (E = >25-75% remaining) | C (C = 0-10% remaining) | < 0.025
28 | Cn1cnc(-c2ccc3c(c2)CN(C2CCC(=O)NC2=O)C3=O)c1-c1cccc(-n2cccn2)c1 (centres unmarked) [Example 516] | < 0.025 | F (F = >75-100% remaining) | D (D = >10- 25% remaining) | < 0.025
29 | Cn1cnc(-c2ccc3c(c2)CN(C2CCC(=O)NC2=O)C3=O)c1-c1cnn(C2CCCCC2)c1 (centres unmarked) [Example 517] | < 0.025 | F (F = >75-100% remaining) | E (E = >25-75% remaining) | ≥ 0.025
30 | Cn1cnc(-c2ccc3c(c2)CN(C2CCC(=O)NC2=O)C3=O)c1-c1cncnc1 (centres unmarked) [Example 520] | ≥ 0.025 | F (F = >75-100% remaining) | E (E = >25-75% remaining) | ≥ 0.025
31 | Cn1ccc(-c2c(-c3ccc4c(c3)CN(C3CCC(=O)NC3=O)C4=O)ncn2C)c1 (centres unmarked) [Example 521] | < 0.025 | E (E = >25-75% remaining) | C (C = 0-10% remaining) | < 0.025
32 | Cn1cnc(-c2ccc3c(c2)CN(C2CCC(=O)NC2=O)C3=O)c1-c1ccc(N)nc1 (centres unmarked) [Example 522] | ≥ 0.025 | E (E = >25-75% remaining) | D (D = >10- 25% remaining) | ≥ 0.025
33 | Cn1cnc(-c2ccc3c(c2)CN(C2CCC(=O)NC2=O)C3=O)c1-c1cncc(N)c1 (centres unmarked) [Example 523] | ≥ 0.025 | E (E = >25-75% remaining) | D (D = >10- 25% remaining) | ≥ 0.025
34 | COc1ccncc1-c1c(-c2ccc3c(c2)CN(C2CCC(=O)NC2=O)C3=O)ncn1C (centres unmarked) [Example 524] | ≥ 0.025 | F (F = >75-100% remaining) | E (E = >25-75% remaining) | ≥ 0.025
35 | Cn1cnc(-c2ccc3c(c2)CN(C2CCC(=O)NC2=O)C3=O)c1-c1ccc2cc[nH]c2c1 (centres unmarked) [Example 525] | < 0.025 | C (C = 0-10% remaining) | C (C = 0-10% remaining) | < 0.025
36 | Cn1cnc(-c2ccc3c(c2)CN(C2CCC(=O)NC2=O)C3=O)c1-c1cccc2cc[nH]c12 (centres unmarked) [Example 526] | < 0.025 | F (F = >75-100% remaining) | E (E = >25-75% remaining) | < 0.025
37 | Cn1cnc(-c2ccc3c(c2)CN(C2CCC(=O)NC2=O)C3=O)c1-c1cc2ccccc2[nH]1 (centres unmarked) [Example 527] | < 0.025 | E (E = >25-75% remaining) | D (D = >10- 25% remaining) | < 0.025
38 | Cn1cnc(-c2ccc3c(c2)CN(C2CCC(=O)NC2=O)C3=O)c1-c1ccc2nccn2c1 (centres unmarked) [Example 528] | ≥ 0.025 | E (E = >25-75% remaining) | D (D = >10- 25% remaining) | ≥ 0.025
